From patent US10906880B2, “Kind of isothiazole oxime ether-containing strobilurin derivatives and its preparation methods and application” (priority 2016, dated 2021)
Like-named read-outs stand apart in the source and are kept apart here.

Legend:
TMV [1] = test: Anti-TMV activity on tobacco, protection mode; format: in vivo, tobacco mosaic virus; details: Tobacco mosaic virus, 100 μg/mL, read-out: Anti-TMV activity inhibition, Protection effect
TMV [2] = test: Anti-TMV activity on tobacco, curative mode; format: in vivo, tobacco mosaic virus; details: for inhibition at 100 µg/mL: Tobacco mosaic virus, read-out: Anti-TMV activity inhibition, Curative effect
Rhizoctonia cerealis = test: Fungicide activity, mycelial growth inhibition on PDA plate; format: cell-based; details: Ceratobasidium cereale, read-out: Fungicidal activity inhibition, RC
Sclerotinia sclerotiorum = test: as above; format: cell-based; details: Sclerotinia sclerotiorum, read-out: Fungicidal activity inhibition, SS
[3] = test system: Phytophthora infestans (Mont) de Bary; test: microbe, parasite or virus in culture; format: cell-based; details: for inhibition at 50 µg/mL: Phytophthora infestans, read-out: Fungicidal activity inhibition, PI, 50 μg/mL, P. infestans (Mont.) de Bary; for Fungicidal activity inhibition, PI: 50 μg/mL, P. infestans (Mont.) de Bary
Cercospora arachidicola = test: Fungicide activity, mycelial growth inhibition on PDA plate; format: cell-based; details: Mycosphaerella arachidis, read-out: Fungicidal activity inhibition, CA
Physalospora piricola = test: as above; format: cell-based; details: read-out: Fungicidal activity inhibition, PP
Alternaria solani = test: as above; format: cell-based; details: Alternaria solani, read-out: Fungicidal activity inhibition, AS
Pellicularia sasakii = test: as above; format: cell-based; details: 50 μg/mL, P. sasakii; read-out: Fungicidal activity inhibition, PS
Botrytis cinerea = test: as above; format: cell-based; details: Botrytis cinerea, read-out: Fungicidal activity inhibition, BC
TMV [4] = test: Anti-TMV activity on tobacco, inactivation mode; format: in vivo, tobacco mosaic virus; details: Tobacco mosaic virus, 100 μg/mL, read-out: Anti-TMV activity inhibition, Inactivation effect

| SMILES | inhibition at 100 µg/mL (TMV [1]) [%] | inhibition at 100 µg/mL (TMV [2]; 100 μg/mL, tobacco) [%] | melting point [°C] | inhibition at 50 µg/mL (Rhizoctonia cerealis; 50 μg/mL, R. cerealis) [%] | inhibition at 50 µg/mL (Sclerotinia sclerotiorum; 50 μg/mL, S. sclerotiorum) [%] | inhibition at 50 µg/mL (Sclerotinia sclerotiorum) [%] | inhibition at 50 µg/mL [3] [%] | inhibition at 50 µg/mL (Cercospora arachidicola; 50 μg/mL, C. arachidicola) [%] | inhibition at 50 µg/mL (Cercospora arachidicola) [%] | inhibition at 50 µg/mL (Physalospora piricola; 50 μg/mL, P. piricola) [%] | inhibition at 50 µg/mL (Alternaria solani; 50 μg/mL, A. solani) [%] | inhibition at 50 µg/mL (Alternaria solani) [%] | inhibition at 50 µg/mL (Pellicularia sasakii) [%] | inhibition at 50 µg/mL (Botrytis cinerea; 50 μg/mL, B. cinerea) [%] | inhibition at 50 µg/mL (Rhizoctonia cerealis) [%] | inhibition at 100 µg/mL (TMV [4]) [%] | other results |
| --- | --- | --- | --- | --- | --- | --- | --- | --- | --- | --- | --- | --- | --- | --- | --- | --- | --- |
| CO/C=C(/C(=O)OC)c1ccccc1CO/N=C(\C)c1snc(Cl)c1Cl [CL03-49] | 35.9 ± 0.63 | > 30 | 100 to 102 | 100 | 80 | > 40 | > 40 | 66.7 | > 30 | 78.3 | 42.9 | > 30 | 64.7 | 100 |  |  |  |
| CO/C=C(/C(=O)OC)c1ccccc1CO/N=C/c1snc(Cl)c1Cl [CL03-50] | > 40 | > 30 | 61 to 63 | 100 | 53.3 | > 40 | > 40 | 66.7 | > 30 | 78.3 | 57.1 | > 30 | 64.7 | 100 |  |  | Anti-TMV activity inhibition, Curative effect (TMV [2]; 100 μg/mL, tobacco): 48.32 ± 5.88% |
| CO/C=C(/C(=O)OC)c1ccccc1CO/N=C(\N)c1snc(Cl)c1Cl [CL04-03] | 35.1 ± 0.39 | > 30 | 105 to 107 | 100 | 100 |  | > 40 | 100 |  | 87 | 57.1 | > 30 | 58.8 | 100 |  |  |  |
| CO/C=C(/C(=O)OC)c1ccccc1CO/N=C(\C)CC(O)c1snc(Cl)c1Cl (stereo not drawn) [CL04-04-A] |  | 19.1 ± 2.13 | 36 to 38 | 100 | 90 |  | > 40 | 75 |  | 73.9 | 85.7 |  | 52.9 | 100 |  |  |  |
| CO/C=C(/C(=O)OC)c1ccccc1CO/N=C(\C)CC(=O)c1snc(Cl)c1Cl [CL04-04-B] | > 40 | 19.1 ± 2 | 103 to 105 | 92.6 | 76.7 | > 40 | > 40 | 75 |  | 60.9 | 50 | > 30 | 64.7 | 58.3 | > 50 |  | inhibition at 50 µg/mL (Botrytis cinerea): > 45% |
| CO/C=C(/C(=O)OC)c1ccccc1CO/N=C(C)/C=C/c1snc(Cl)c1Cl [CL04-06] | > 40 | 22.4 ± 6.85 | 101 to 103 | 100 | 100 |  |  | 50 | > 30 |  | 57.1 | > 30 | 70.6 | 100 |  | 22.2 ± 5.9 | inhibition at 50 µg/mL (Physalospora piricola): 73.9% |
| CO/N=C(/C(=O)OC)c1ccccc1CO/N=C/c1snc(Cl)c1Cl [CL04-15B] | 14.7 ± 2.73 | 27 ± 4.13 | 88 to 90 | 98.2 | 90 |  |  | 91.7 |  | 62.1 | 100 |  | 69.2 | 100 |  |  |  |
| CO/N=C(/C(=O)OC)c1ccccc1CO/N=C(\N)c1snc(Cl)c1Cl [CL04-15C] | 25.1 ± 4.33 | 1.52 ± 0.62 | 104 to 106 | 89.1 | 98 |  |  | 75 |  | 71.2 | 52.9 | > 30 | 76.9 | 100 | > 50 |  |  |
| CO/N=C(/C(=O)NCC(F)F)c1ccccc1CO/N=C(\C)c1snc(Cl)c1Cl [CL04-22A] | 30.7 ± 2.06 | 23.4 ± 5.58 | 78 to 80 | 87.7 | 84 | > 40 |  | 42.9 | > 30 | 40.4 | 37.1 | > 30 | 20 | 53.9 | > 50 | > 30 | inhibition at 50 µg/mL (Botrytis cinerea): > 45% |
| CO/N=C(/C(=O)NC1CC1)c1ccccc1CO/N=C(\C)c1snc(Cl)c1Cl [CL04-22C] | 23.6 ± 0.57 | 4.62 ± 0.55 | 115 to 117 | 61 | 80 | > 40 |  | 44 | > 30 | 61.4 | 27.9 |  | 56.8 | 47.4 | > 50 | 4.44 ± 0.85 | Fungicidal activity inhibition, PI [3]: 100%; inhibition at 50 µg/mL (Botrytis cinerea): > 45% |
| C#CCNC(=O)/C(=N/OC)c1ccccc1CO/N=C(\N)c1snc(Cl)c1Cl [CL04-25A] | > 40 |  | 106 to 108 | 65.8 | 46.7 | > 40 |  | 20 |  | 19.3 | 8.2 |  | 46 | 42.1 | > 50 | 0 | Fungicidal activity inhibition, PI [3]: 100% |
| C#CCNC(=O)/C(=N/OC)c1ccccc1CO/N=C(C)/C=C/c1snc(Cl)c1Cl [CL04-32B] | 23.4 ± 1.02 |  | 92 to 93 | 100 | 80 | > 40 |  | 52 | > 30 | 64.9 | 41 | > 30 | 78.4 | 47.4 |  |  | Fungicidal activity inhibition, PI [3]: 100%; inhibition at 50 µg/mL (Botrytis cinerea): > 45% |
| CO/N=C(/C(=O)N[C@H](C)CSC)c1ccccc1CO/N=C(C)/C=C/c1snc(Cl)c1Cl [CL04-32F] | > 40 |  |  | 62 | 52.9 | > 40 | 20 | 12.5 |  | 58 | 12.7 |  | 21.2 | 42.9 | > 50 | 7.71 ± 1.42 |  |
| CNCC(=O)N[C@@H](CO)C(=O)N[C@H]1[C@H](O)[C@@H](O)[C@H](n2ccc(N)nc2=O)O[C@@H]1C(N)=O [Ningnanmycin, reference compound] |  |  |  |  |  |  |  |  |  |  |  |  |  |  |  |  | inhibition at 100 µg/mL (TMV [2]): 74.1 ± 2.04% |
| NC(=O)c1ncn([C@@H]2O[C@H](CO)[C@@H](O)[C@H]2O)n1 [Ribavirin, reference compound] |  |  |  |  |  |  |  |  |  |  |  |  |  |  |  | 78 ± 1 |  |
